Source: patent US20120328602A1, “COMPOSITIONS AND METHODS FOR TREATING CONDITIONS ASSOCIATED WITH CERAMIDE BIOSYNTHESIS” (priority 2007, published 2012)
Read-outs that look alike come from different tables or passages of the source.

Assays:
[1] = target: T1, acid sphingomyelinase (ASMase) (Mus musculus, UniProt Q04519); test: sphingomyelinase activity in spinal cord tissues, acid isoforms (Amplex Red kit); format: in vivo, mice; settings: D609 40 mg/kg/d co-administered with morphine
T1 construct: spinal cord tissues were homogenized in buffers for each specific assay; from tissue; host or cells: mouse spinal cord homogenate (Na acetate pH 5.0 lysis buffer)
T1 sequence (Q04519 45-627): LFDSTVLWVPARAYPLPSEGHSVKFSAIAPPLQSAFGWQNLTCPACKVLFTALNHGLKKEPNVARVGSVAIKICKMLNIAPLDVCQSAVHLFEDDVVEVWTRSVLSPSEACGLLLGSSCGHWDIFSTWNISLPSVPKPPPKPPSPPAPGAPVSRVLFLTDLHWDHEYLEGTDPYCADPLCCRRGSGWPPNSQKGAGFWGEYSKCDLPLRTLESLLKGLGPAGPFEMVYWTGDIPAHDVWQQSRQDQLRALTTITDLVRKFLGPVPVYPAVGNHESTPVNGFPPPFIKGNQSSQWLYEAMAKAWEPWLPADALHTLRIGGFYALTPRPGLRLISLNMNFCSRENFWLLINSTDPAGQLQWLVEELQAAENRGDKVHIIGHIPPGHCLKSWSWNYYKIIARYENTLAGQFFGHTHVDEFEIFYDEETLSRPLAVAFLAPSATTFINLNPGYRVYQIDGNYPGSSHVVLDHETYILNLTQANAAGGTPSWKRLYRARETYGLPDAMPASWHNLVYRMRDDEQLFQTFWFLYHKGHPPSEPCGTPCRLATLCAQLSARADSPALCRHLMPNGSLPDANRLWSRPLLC
Description: Sphingomyelinase activity was measure using Amplex® Red Sphingomyelinase Assay Kit (Molecular Probes, Eugene, Oreg.) following manufacturer's instructions. […] For the acid isoforms, Na acetate (100 mM and pH 5.0) lysis buffer was used. 2 mM EDTA was added to the lysis buffer for detection of the insoluble isoform. For neutral isoform detection, the tissues were homogenized in Hepes (20 mM, pH 7.4) lysis buffer. The kinetics for sphingomyelinase activity was measured in a fluorescence microplate reader for two hours followed by normalization per protein concentration of the sample. Hydrogen peroxide and sphingomyelinase were used as positive controls.

ceramide = test: immunohistochemistry for ceramide in spinal cord (Example 3); settings: co-administered with morphine; FB1 1 mg/kg/d, myriocin 0.4 mg/kg/d, D609 40 mg/kg/d
mice [2] = format: in vivo; settings: for responses to acute morphine in control groups vs control groups treated with drug: no repeated morphine; for development of antinociceptive tolerance: co-administration with morphine, i.p., FB1 1 mg/kg, myriocin 0.2 mg/kg, D609 40 mg/kg; for antinociceptive effects when tested alone: drug alone (not shown)
mice [3] = test: hot plate, morphine-induced antinociceptive tolerance (Examples 3-5); format: in vivo, Male CD-1 mice; settings: for development of tolerance, dose-dependence: co-administered with morphine, FB1 0.1-1 mg/kg/d, myriocin 0.1-0.4 mg/kg/d, D609 10-40 mg/kg/d; for development of tolerance, dose-dependence / hot plate latencies following s.c. saline / difference in responses to acute morphine (0.3-3 mg/kg), drug vs vehicle: n=10; for hot plate latencies following s.c. saline: day five, highest dose of drug, no morphine; for difference in responses to acute morphine (0.3-3 mg/kg), drug vs vehicle: highest dose over five days: FB1 1 mg/kg/d, myriocin 0.4 mg/kg/d, D609 40 mg/kg/d; for antinociceptive effects when tested alone: highest dose; for % MPE: tolerant mice, single i.p. dose fifteen minutes before acute morphine 3 mg/kg: FB1 1 mg/kg, myriocin 0.4 mg/kg, D609 40 mg/kg, n=6
Description: Nociceptive thresholds were determined by measuring latencies (in seconds) of mice placed in a transparent glass cylinder on a hot plate (Ugo Basile, Italy) maintained at 52° C. Determination of antinociception was assessed between 7 and 10:00 A.M. All injections were given intra-peritoneally (i.p.) or subcutaneously (s.c.) in a volume of 0.1 and 0.3 ml, respectively, at approximately 7 A.M. and 4 P.M. Responses indicative of nociception included intermittent lifting and/or licking of the hindpaws or escape behavior. […] Results were expressed as percentage of maximum possible antinociceptive effect, which was calculated as follows: (response latency−baseline latency)/(cut-off latency−baseline latency)×100. A cut-off latency of twenty seconds was employed to prevent tissue damage. Ten mice per group were used and all experiments were conducted with the experimentors blinded to treatment conditions. […] The following experimental groups were used: […]
Vehicle (V) Group: In this group, mice were injected twice per day for four days with an i.p, injection of saline and a s.c. injection of saline.

mice [4] = test: Rotarod motor function test; format: in vivo; settings: myriocin 0.4 mg/kg, FB1 1 mg/kg, D609 40 mg/kg; fifteen, thirty, and sixty minutes after administration; n=4; vs vehicle
Description: Mice were trained before experimentation for their ability to remain for one-hundred twenty seconds on a revolving Rotarod apparatus (accelerating units increase from 3.5 to 35 rpm in five minutes). Mice (n=4 per group) were injected with an i.p. injection of the highest dose of FB1 (1 mg/kg), myriocin (0.4 mg/kg), D609 (40 mg/kg) used to block antinociceptive tolerance or its vehicle. Mice (n=4 per group) were tested and examined for motor […] on the Rotarod at fifteen, thirty, and sixty minutes after drug administration as described in the method section. The latency time to fall off the Rotarod was determined. A cut-off time of one-hundred twenty seconds was used.

neutral SMase = settings: at 5 mM GSH; cited from earlier work
acid SMase = target: T2, acid SMase (Homo sapiens, UniProt P17405); settings: at 30 μM; cited from earlier work
T2 sequence (P17405 47-631): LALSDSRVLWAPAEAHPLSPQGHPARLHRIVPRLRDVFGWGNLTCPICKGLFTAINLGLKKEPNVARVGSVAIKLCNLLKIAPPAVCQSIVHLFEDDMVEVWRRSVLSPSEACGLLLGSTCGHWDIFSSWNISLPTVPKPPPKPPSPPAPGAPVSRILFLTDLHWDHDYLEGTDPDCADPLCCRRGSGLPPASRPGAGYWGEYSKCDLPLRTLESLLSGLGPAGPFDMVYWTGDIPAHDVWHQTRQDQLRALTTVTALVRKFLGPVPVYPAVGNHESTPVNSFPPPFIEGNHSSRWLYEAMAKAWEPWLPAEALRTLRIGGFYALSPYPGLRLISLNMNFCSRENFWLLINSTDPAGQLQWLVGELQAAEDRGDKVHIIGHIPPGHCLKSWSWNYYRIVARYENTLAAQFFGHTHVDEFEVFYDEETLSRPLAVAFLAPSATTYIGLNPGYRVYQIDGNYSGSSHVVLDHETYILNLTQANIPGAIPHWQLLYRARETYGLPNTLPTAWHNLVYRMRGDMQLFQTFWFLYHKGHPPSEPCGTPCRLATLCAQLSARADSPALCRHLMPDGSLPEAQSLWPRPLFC

[5] = system: serine palmitoyl transferase (SPT); test: serine palmitoyl transferase (SPT) activity; format: in vivo, mice; settings: co-administration of morphine with myriocin 0.4 mg/kg/d, n=10
Description: SPT activity was determined by measuring the incorporation of [^3H] serine into 3-ketosphinganine following the method previously described (Williams et al., 1984). The results were normalized by the samples' protein concentration.

Structure (SMILES) | increased activity of ASMase [1] | ceramide immunostaining (ceramide) | responses to acute morphine in control groups vs control groups treated with drug (mice [2]) | development of antinociceptive tolerance (mice [2]) | antinociceptive effects when tested alone (mice [2]) | development of tolerance, dose-dependence (mice [3]) | hot plate latencies following s.c. saline (mice [3]) | difference in responses to acute morphine (0.3-3 mg/kg), drug vs vehicle (mice [3]) | antinociceptive effects when tested alone (mice [3]) | % MPE (mice [3]) [%] | Rotarod motor function deficits (mice [4]) | inhibition of neutral SMase (neutral SMase) | inhibition of acid SMase (acid SMase) [%] | activation of SPT [5]
S=C([S-])OC1CC2CC1C1CCCC21.[K+] (stereo not drawn) [D609, tricyclodecan-9-xanthogenate] | blocked the increased activity of ASMase | blocked | similar | blocked antinociceptive tolerance | no antinociceptive effects | blocked in a dose-dependent manner | six and seven | statistically insignificant | none of FB1, myriocin, or D609 had antinociceptive effects | 11±2 | did not show signs of Rotarod deficits |  |  | 
N[C@@H](CCC(=O)N[C@@H](CS)C(=O)NCC(=O)O)C(=O)O [Glutathione] |  |  |  |  |  |  |  |  |  |  |  | greater than 95% |  | 
COc1ccc(CCN(C)CCCOc2ccc(S(=O)(=O)c3c(C(C)C)cn4ccccc34)cc2)cc1OC [SR33557] |  |  |  |  |  |  |  |  |  |  |  |  | 72 | 
CCCCCCC(=O)CCCCCC/C=C/C[C@@H](O)[C@H](O)[C@@](N)(CO)C(=O)O [myriocin] |  | blocked | similar | blocked antinociceptive tolerance | no antinociceptive effects | blocked | six and seven | statistically insignificant | none of FB1, myriocin, or D609 had antinociceptive effects | 13±2 | did not show signs of Rotarod deficits |  |  | blocked, as expected, the activation of SPT
